Experiment: Nitrosamine formation in aqueous amine / sodium nitrite mixture, comparison with THEDA (Beispiel 4)
Type: physicochemical
Conditions: 20 mM Amin, 20 mM Natriumnitrit, 4 Stunden, 37 °C, pH 4

In the case of `CC(O)CN(CCN(CC(C)O)CC(C)O)CC(C)O` (stereo not shown) [THEDA, N,N,N′,N′-Tetrakis(2-hydroxypropyl)ethylene-diamin], the “% gebildetes Nitrosamin bezogen auf eingesetztes Amin” value is reported as 1,0%.

— EP0344564A1, “Utilisation of special amines or hindering nitrosamine production” (Eisenbrand, Gerhard, Prof. Dr., priority 1988, dated 1989)
